According to PubChem BioAssay AID489033 (Sanford-Burnham Center for Chemical Genomics, 2010):
Active and inactive are the calls of the source. No rule for the calls is given here.

Tested on: 697B B-cell line, NF-kB luciferase reporter luminescence
Test: NF-kB reporter inhibition in B cells, dose response, selectivity assay for T-cell antigen receptor NF-kB inhibitors, 697B cells, luminescence (AID 489033)

`Cc1ccc(Nc2cc(C)nn2-c2nc(C)cc(=O)[nH]2)cc1` was tested, and the IC50 was 0.95 µM.
In the case of `O=C1CC(c2cc(Br)ccc2F)c2cc3c(cc2N1)CCC3` (centres undefined), the IC50 is reported as > 80 µM (inactive).
In the case of `CCOC(=O)c1[nH]c(C)c(C(=O)Nc2cc(OC)ccc2OC)c1C`, the IC50 is reported as > 80 µM (inactive).
For `CC1(C)Cc2nc3sc4c(=O)n(CC(=O)NCc5ccccc5)cnc4c3cc2CO1`, the IC50 was > 80 µM (inactive).
For `CCOC(=O)C(C)Oc1cccc2c(=O)n(CC(=O)NCc3ccccc3)ccc12` (centres undefined), the IC50 was > 80 µM (inactive).
`Cc1ccc(C(=O)c2cc([N+](=O)[O-])ccc2N2CCCCC2)cc1C` was tested, and the IC50 was > 80 µM (inactive).
Compound `Cc1ccc(C[n+]2c(-c3ccc(C)cc3)cc(-c3ccc(C)cc3)cc2-c2ccc(C)cc2)cc1` has an IC50 of 0.29 µM.
For `Cc1cccc(N2CCN(C(=O)c3ccc(S(=O)(=O)N(C)c4ccccc4)cc3)CC2)c1C`, the IC50 was > 80 µM (inactive).
For `CCOc1ccccc1C1CC(=O)Nc2cc(C)c(C)cc21` (centres undefined), the IC50 was > 80 µM (inactive).
In the case of `O=C(NCc1ccc2c(c1)OCO2)c1cc([N+](=O)[O-])ccc1N1CCOCC1`, the IC50 is reported as > 80 µM (inactive).
With `COc1ccc(C(=O)Nc2ccc3[nH]c(-c4cccc(OC)c4)cc(=O)c3c2)cc1` the IC50 was > 80 µM (inactive).
Work on `CNC[C@@H](CC1CCCCC1)NC[C@H](CC(C)C)NCCc1cccc(C(F)(F)F)c1` yielded an IC50 of 4.88 µM.
In the case of `O=C(COc1ccc(C(=O)c2ccccc2)cc1)NCc1ccc(F)cc1`, the IC50 is reported as > 80 µM (inactive).
`O=C(NC(Nc1nc2ccc([N+](=O)[O-])cc2s1)(C(F)(F)F)C(F)(F)F)c1ccccc1` was tested, and the IC50 was 0.72 µM.
For `Cc1cc(C(=O)N2CC=C(c3ccccc3)CC2)c2ccccc2n1`, the IC50 was > 80 µM (inactive).
`CC(C)c1oc(=O)cc2c1[C@@H](O)[C@H]1OC(=O)[C@@]3(C)CC[C@@H](O)[C@@]2(C)C13` (some centres undefined) was tested, and the IC50 was 14 µM.
With `Cc1ccc(O)c(N=Nc2nccs2)c1` the IC50 was 8.6 µM.
`CCC(O)C1CCN(C(=O)c2cc(COc3ccc4ncccc4c3)on2)CC1` (centres undefined) was tested, and the IC50 was 3.88 µM.
For `Cc1[nH]n(-c2ccccc2)c(=O)c1/C=N/Nc1nncc(-c2ccccc2)n1`, the IC50 was > 80 µM (inactive).
For `Cc1nc2ccccc2c2c1CC(C(C)(Cl)Br)O2` (centres undefined), the IC50 was 22.8 µM (inactive).
`CC[C@]1(O)CC2CN(CCc3c([nH]c4ccccc34)[C@@](C(=O)OC)(c3cc4c(cc3OC)N(C=O)[C@H]3[C@@](O)(C(=O)OC)[C@H](OC(C)=O)[C@]5(CC)C=CCN6CC[C@]43[C@@H]65)C2)C1` (some centres undefined) was tested, and the IC50 was > 80 µM (inactive).
With `O=Cc1cc2ccccc2nc1SCc1ccc(Cl)c(Cl)c1` the IC50 was 48.8 µM (inactive).
`COc1ccc(CCN2C(=O)C3C4C=CC(C3C2=O)C2C(=O)N(CCc3ccc(OC)c(OC)c3)C(=O)C42)cc1OC` (centres undefined) was tested, and the IC50 was > 80 µM (inactive).
With `CCn1c2ccccc2c2cc(Nc3cc(C)nc4ncnn34)ccc21` the IC50 was 47 µM (inactive).
In the case of `CCN1C/C(=C/c2ccc(OC)c(O)c2)C(=O)/C(=C/c2ccc(OC)c(O)c2)C1`, the IC50 is reported as 25.2 µM (inactive).
In the case of `O=C(Nc1ccc(N2CCN(C(=O)c3ccc(Cl)cc3)CC2)cc1)c1ccc2c(c1)OCCO2`, the IC50 is reported as > 80 µM (inactive).
In the case of `COC(=O)c1ccccc1NC(=O)Cn1c(-c2nonc2N)nc2ccccc21`, the IC50 is reported as > 80 µM (inactive).
`CCOC(=O)Nc1nc(-c2ccccc2)c(C(=O)c2ccc(Cl)cc2)s1` was tested, and the IC50 was > 80 µM (inactive).
Work on `O=C(c1ccccc1)c1nn(-c2ccc(Cl)cc2)c(=O)cc1C(F)(F)F` yielded an IC50 of 6.53 µM.
Work on `COc1ccc(Nc2ncnc3ccc(Br)cc23)c(OC)c1` yielded an IC50 of 0.37 µM.
In the case of `Cc1nn(C)c(C)c1CN(Cc1nc(CCC(C)C)no1)C(C)C`, the IC50 is reported as > 80 µM (inactive).
`Cc1ccc(/C=N/NC(=O)C2COc3ccccc3O2)s1` (centres undefined) was tested, and the IC50 was 45.6 µM (inactive).
Compound `COC(=O)c1[nH]c2ccc(Br)cc2c1NC(=O)CN1CCN(C2CCCCC2)CC1` has an IC50 of 8.88 µM.
`CCCCCCCCn1c2c(c(=N)c3c1CCC3)CCCC2` was tested, and the IC50 was 27.5 µM (inactive).
For `CCOc1ccccc1C1CC(=O)Nc2cc3c(cc21)OCO3` (centres undefined), the IC50 was > 80 µM (inactive).
In the case of `COc1ccc(N/N=C/c2c(C(=O)O)ccc3ccccc23)cc1`, the IC50 is reported as 58.4 µM (inactive).
`CCOc1ccc(S(=O)(=O)NCc2ccccn2)cc1NC(=O)c1ccccc1F` was tested, and the IC50 was > 80 µM (inactive).
`CCO[C@H]1OC(C(=O)NCc2nc3ccccc3[nH]2)=C[C@@H](C2CC2)[C@@H]1CCCO` was tested, and the IC50 was > 80 µM (inactive).
In the case of `C=C1C(O)[C@@H]2O[C@]3(CC[C@H](/C=C/C(C)[C@@H]4CC(C)=CC5(O[C@H](C[C@@](C)(O)CO)CCC5O)O4)O3)CC[C@H]2O[C@@H]1C(O)CC(C)[C@H]1OC2(CCCCO2)CCC1C` (some centres undefined), the IC50 is reported as 3.19 µM.
For `O=C(Nc1ccc(Oc2cccnc2)nc1)c1ccc(C(F)(F)F)cc1`, the IC50 was 0.25 µM.
Work on `CCOC(=O)/C=C/S(=O)(=O)c1ccc(NC(C)=O)cc1` yielded an IC50 of 0.39 µM.
For `O=C(/C=C/c1cccc([N+](=O)[O-])c1)n1cnc2ccccc21`, the IC50 was 3.2 µM.
In the case of `Cc1ccc(O)c(NC(=O)c2cc(-c3ccccc3)on2)c1`, the IC50 is reported as > 80 µM (inactive).
With `COc1cc(C(=O)N2CCN(c3cccc(C)c3C)CC2)cc(OC)c1OC` the IC50 was > 80 µM (inactive).
In the case of `Cc1ccccc1NS(=O)(=O)c1ccc(N2CCCC2=O)cc1`, the IC50 is reported as > 80 µM (inactive).
With `CC(C)(C)c1ccc(C(=O)Nc2ccc(Oc3cccnc3)nc2)cc1` the IC50 was 3.28 µM.
`O=C1c2c(O)ccc(O)c2C(=O)c2c(NCCNCCO)ccc(NCCNCCO)c21` gave an IC50 of 4.2 µM.
Work on `CCCCN1/C(=C/c2ccc3ccccc3[n+]2CC)Sc2ccccc21` yielded an IC50 of 8.19 µM.
In the case of `COc1ccc(-n2nnnc2-c2cccc(OC)c2)cc1`, the IC50 is reported as > 80 µM (inactive).
